Earlier results in patent US20260092327A1, “METHODS OF MONITORING MUTATIONS IN TREATMENT OF COLORECTAL CANCER” (Cardiff Oncology, Inc., priority 2022, published 2026).

Experiments:
[1] = test system: advanced/metastatic solid tumors
[2] = molecular target: PLK1 (Homo sapiens, UniProt P53350); conditions: among a panel of 296 kinases, including other PLK members
[3] = test system: cell lines from solid and hematologic tumors; conditions: large number of cell lines
[4] = test system: cancer cell lines
[5] = test system: xenograft tumor; conditions: well tolerated doses in mice after oral administration
[6] = test system: HT29 human colon adenocarcinoma xenografts; conditions: compared to each agent alone
[7] = test system: disseminated model of AML
[8] = test system: HCT-116 KRAS-mutant CRC xenograft; conditions: HCT-116 KRAS-mutant CRC xenograft model
[9] = adult subjects with advanced/metastatic solid tumors, single agent

Sequence of PLK1 (P53350 whole entry): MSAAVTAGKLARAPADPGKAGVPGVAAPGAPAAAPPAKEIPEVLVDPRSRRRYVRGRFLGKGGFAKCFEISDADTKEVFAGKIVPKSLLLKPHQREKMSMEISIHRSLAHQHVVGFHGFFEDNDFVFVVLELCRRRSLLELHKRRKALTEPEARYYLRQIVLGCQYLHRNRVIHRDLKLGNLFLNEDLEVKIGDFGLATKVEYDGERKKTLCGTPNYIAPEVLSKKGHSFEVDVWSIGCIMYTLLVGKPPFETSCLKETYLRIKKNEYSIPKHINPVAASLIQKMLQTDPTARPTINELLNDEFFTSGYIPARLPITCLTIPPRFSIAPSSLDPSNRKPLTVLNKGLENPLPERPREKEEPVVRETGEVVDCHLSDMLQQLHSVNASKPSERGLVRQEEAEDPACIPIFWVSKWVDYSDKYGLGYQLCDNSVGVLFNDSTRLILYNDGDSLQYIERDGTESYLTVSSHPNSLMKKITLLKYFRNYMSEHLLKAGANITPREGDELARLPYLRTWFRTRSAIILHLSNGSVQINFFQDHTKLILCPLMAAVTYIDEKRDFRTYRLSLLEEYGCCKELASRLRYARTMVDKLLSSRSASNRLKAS

recommended phase 2 dose [1, 9]: 24 mg/m^2
specificity for PLK1 [2]: high specificity
half-life (in vivo): about 24 hours
oral bioavailability (rodent and nonrodent species): good oral bioavailability
Structure (SMILES): CN1CCN(c2ccc(OC(F)(F)F)c(Nc3ncc4c(n3)-c3c(c(C(N)=O)nn3CCO)CC4)c2)CC1 [Onvansertib, 1-(2-hydroxyethyl)-8-{[5-(4-methylpiperazin-1-yl)-2-(trifluoromethoxy)phenyl]amino}-4,5-dihydro-1H-pyrazolo[4,3-h]quinazoline-3-carboxamide]
evaluable patients with stable disease [1, 9]: 5 of 16
primary dose-limiting toxicities ([1]; patients with advanced/metastatic solid tumors): neutropenia and thrombocytopenia
recovery of hematologic toxicities ([1]; toxicities reversible): ≤ 3 weeks
potency in proliferation assays [3]: low nanomolar activity
effect on cell cycle [4]: mitotic cell-cycle arrest followed by apoptosis
xenograft tumor growth [5]: inhibits xenograft tumor growth
tumor regression in combination with irinotecan [6]: enhanced tumor regression
survival of animals in combination with cytarabine [7]: prolonged survival
anti-tumor activity as single agent [8]: potent anti-tumor activity
combination effect with 5-FU [8]: synergy
combination effect with irinotecan [8]: synergy
